Measured values from ChEMBL document CHEMBL1201862, “PubChem BioAssay data set” (2004).
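The compound was tested at five concentrations on cells cultured in 96-well plates, with a 48-hour exposure period. Abbreviation: GI50, concentration required for 50% inhibition of growth.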 The source made the active and inactive calls. Cut-off read from the data, not from the text of the source: active = GI50 up to about 1.1 µM and inactive = higher.

How the values were obtained:
Test in all cases: NCI anticancer screen, dose series, 48 h
[1] = test system: IGROV-1
[2] = test system: HCC 2998
[3] = test system: SF-295
[4] = test system: RPMI-8226
[5] = test system: SF-539
[6] = test system: HOP-62
[7] = test system: SK-MEL-5
[8] = test system: MDA-MB-435
[9] = test system: NCI/ADR-RES
[10] = test system: SNB-19
[11] = test system: OVCAR-4
[12] = test system: NCI-H226
[13] = test system: OVCAR-5
[14] = test system: OVCAR-3
[15] = test system: Hs-578T
[16] = test system: SK-MEL-2
[17] = test system: U-251
[18] = test system: SNB-75
[19] = test system: K562
[20] = test system: DU-145

| Compound | GI50 [1] | GI50 [2] | GI50 [3] | GI50 [4] | GI50 [5] | GI50 [6] | GI50 [7] | GI50 [8] | GI50 [9] | GI50 [10] | GI50 [11] | GI50 [12] | GI50 [13] | GI50 [14] | GI50 [15] | GI50 [16] | GI50 [17] | GI50 [18] | GI50 [19] | GI50 [20] |
| --- | --- | --- | --- | --- | --- | --- | --- | --- | --- | --- | --- | --- | --- | --- | --- | --- | --- | --- | --- | --- |
| Oc1cccc(Nc2cc(O)nc(O)n2)c1 | > 100 µM (inactive) | > 100 µM (inactive) | > 100 µM (inactive) | > 100 µM (inactive) | > 100 µM (inactive) | > 100 µM (inactive) | > 100 µM (inactive) | > 100 µM (inactive) | > 100 µM (inactive) | > 100 µM (inactive) | > 100 µM (inactive) | > 100 µM (inactive) | > 100 µM (inactive) | > 100 µM (inactive) | > 100 µM (inactive) | > 100 µM (inactive) | > 100 µM (inactive) | > 100 µM (inactive) | > 100 µM (inactive) |  |
| CC(C(N)C(=O)NC(C(=O)O)C1OC(n2ccc(=O)[nH]c2=O)C(O)C1O)C(O)c1ccc(O)cn1 (centres undefined) | > 100 µM (inactive) | > 100 µM (inactive) | > 100 µM (inactive) | > 100 µM (inactive) | > 100 µM (inactive) | > 100 µM (inactive) | > 100 µM (inactive) | > 100 µM (inactive) | > 100 µM (inactive) | > 100 µM (inactive) |  |  | > 100 µM (inactive) | > 100 µM (inactive) | > 100 µM (inactive) | > 100 µM (inactive) | > 100 µM (inactive) | > 100 µM (inactive) |  | > 100 µM (inactive) |
| N#Cc1nc(Cc2ccccc2)oc1N | > 100 µM (inactive) |  | > 100 µM (inactive) | 16.9 µM (inactive) | > 100 µM (inactive) | > 100 µM (inactive) | > 100 µM (inactive) | > 100 µM (inactive) |  | 38.7 µM (inactive) | > 100 µM (inactive) | > 100 µM (inactive) | > 100 µM (inactive) | > 100 µM (inactive) | 25.2 µM (inactive) | > 100 µM (inactive) | > 100 µM (inactive) |  | 42.1 µM (inactive) | > 100 µM (inactive) |
| C[N+](C)(C)/C=N\c1cccc2nsnc12 | > 100 µM (inactive) |  | > 100 µM (inactive) | > 100 µM (inactive) | > 100 µM (inactive) | > 100 µM (inactive) | > 100 µM (inactive) | > 100 µM (inactive) | > 100 µM (inactive) | > 100 µM (inactive) | > 100 µM (inactive) | > 100 µM (inactive) | > 100 µM (inactive) | > 100 µM (inactive) | > 100 µM (inactive) | > 100 µM (inactive) | > 100 µM (inactive) | > 100 µM (inactive) | > 100 µM (inactive) | > 100 µM (inactive) |
| CN(C)c1ccc(/C=N/NC(=S)Nc2ccccc2)cc1 | > 100 µM (inactive) |  | > 100 µM (inactive) | > 100 µM (inactive) | > 100 µM (inactive) | 96.4 µM (inactive) | > 100 µM (inactive) | > 100 µM (inactive) | > 100 µM (inactive) | > 100 µM (inactive) | > 100 µM (inactive) | > 100 µM (inactive) | > 100 µM (inactive) | > 100 µM (inactive) | > 100 µM (inactive) | > 100 µM (inactive) | > 100 µM (inactive) | > 100 µM (inactive) | > 100 µM (inactive) | > 100 µM (inactive) |
| O=C1C(O)=C(CCCCCCCCC2CCCCC2)C(=O)c2ccccc21 [MENOCTONE] | 5.3 µM (inactive) | 8.69 µM (inactive) | 6.98 µM (inactive) | 6.15 µM (inactive) | 7.53 µM (inactive) | 11.6 µM (inactive) | 10.4 µM (inactive) | 4.99 µM (inactive) | 6.34 µM (inactive) | 9.86 µM (inactive) | 16.5 µM (inactive) |  | 17 µM (inactive) | 10.7 µM (inactive) | 12.4 µM (inactive) | 11.8 µM (inactive) | 5.71 µM (inactive) | 10.6 µM (inactive) | 2.51 µM (inactive) | 7.45 µM (inactive) |
| C#Cc1cc(Br)c(OC(=O)C(C)(C)C)c(-c2cc(C#C)cc(Br)c2OC(=O)C(C)(C)C)c1 | 76.9 µM (inactive) | 24.4 µM (inactive) | 30.5 µM (inactive) | 12.5 µM (inactive) | 64.6 µM (inactive) | 55.6 µM (inactive) | 37.6 µM (inactive) | 45.8 µM (inactive) | > 100 µM (inactive) | 43.9 µM (inactive) | 73.1 µM (inactive) |  | 21.2 µM (inactive) | 80 µM (inactive) | 53.6 µM (inactive) | 49 µM (inactive) | 45.1 µM (inactive) |  | 35.8 µM (inactive) | 62.4 µM (inactive) |
| COc1cc(/C=C2\N=C(c3ccccc3)N(c3nc4cc(C)c(C)cc4s3)C2=O)cc(OC)c1OC | 15.9 µM (inactive) | 20.9 µM (inactive) | 27.9 µM (inactive) | 19.3 µM (inactive) | 21.7 µM (inactive) | 19.9 µM (inactive) | 21.2 µM (inactive) | 12.9 µM (inactive) | 28.1 µM (inactive) | 36 µM (inactive) | 21.3 µM (inactive) |  | 27.2 µM (inactive) | 20 µM (inactive) | 16.6 µM (inactive) | 32 µM (inactive) | 21.8 µM (inactive) | 18.5 µM (inactive) | 35.4 µM (inactive) | 45.4 µM (inactive) |
| COC(=O)CC[C@@H](C)[C@H]1CC[C@H]2[C@@H]3CC[C@@H]4C[C@H](O)CC[C@]4(C)[C@H]3CC[C@]12C | 17.2 µM (inactive) |  | 18.2 µM (inactive) | 11.7 µM (inactive) | 18.5 µM (inactive) | 18.4 µM (inactive) | 16.9 µM (inactive) | 16.7 µM (inactive) | 19 µM (inactive) | 21.6 µM (inactive) | 19 µM (inactive) | 20.3 µM (inactive) | 19.8 µM (inactive) | 18.1 µM (inactive) | 23.1 µM (inactive) | 18.7 µM (inactive) | 20.7 µM (inactive) | 19.1 µM (inactive) | 10.7 µM (inactive) | 17.7 µM (inactive) |
| CCCCCCCCCCCC[C@@H](O)[C@H]1CC[C@H]([C@H]2CC[C@H]([C@H](O)CC[C@H](O)CCCCCCCC3=C[C@H](C)OC3=O)O2)O1 | 1.65 µM (inactive) |  | 1.26 µM (inactive) | 1.2 µM (inactive) | 1.68 µM (inactive) | 1.57 µM (inactive) | 1.38 µM (inactive) | 1.77 µM (inactive) | 1.29 µM (inactive) | 1.23 µM (inactive) |  | 1.67 µM (inactive) | 1.69 µM (inactive) | 1.58 µM (inactive) | 2.18 µM (inactive) | 1.52 µM (inactive) | 2.13 µM (inactive) | 1.75 µM (inactive) | 1.05 µM (active) | 3.38 µM (inactive) |
| CCC1C(=O)C(O)[C@H]2[C@@H]3C(O)CC4=CC(=O)CC[C@]4(C)[C@H]3CC[C@]12C (some centres undefined) | > 50 µM (inactive) | > 50 µM (inactive) | > 50 µM (inactive) | > 50 µM (inactive) | > 50 µM (inactive) | > 50 µM (inactive) | > 50 µM (inactive) | > 50 µM (inactive) | > 50 µM (inactive) | > 50 µM (inactive) |  |  | > 50 µM (inactive) | > 50 µM (inactive) | > 50 µM (inactive) | > 50 µM (inactive) | > 50 µM (inactive) | > 50 µM (inactive) | > 50 µM (inactive) | > 50 µM (inactive) |
| CCOC(=O)c1nc2ccc(C(F)(F)F)cc2nc1Oc1cc(OC)cc(OC)c1 | 41.7 µM (inactive) |  | 78.3 µM (inactive) | > 100 µM (inactive) | 57.1 µM (inactive) | 65.6 µM (inactive) | 29 µM (inactive) | 77.6 µM (inactive) | > 100 µM (inactive) | 68.9 µM (inactive) | 26.4 µM (inactive) | 67.8 µM (inactive) | > 100 µM (inactive) | > 100 µM (inactive) | 17 µM (inactive) | > 100 µM (inactive) | 87.9 µM (inactive) | 21.4 µM (inactive) | > 100 µM (inactive) | 87.3 µM (inactive) |
| CC(C)(C)c1ccc2c(c1)C#Cc1cc(C(C)(C)C)ccc1OCCCO2 | > 100 µM (inactive) |  | > 100 µM (inactive) | > 100 µM (inactive) |  | > 100 µM (inactive) | > 100 µM (inactive) | > 100 µM (inactive) | > 100 µM (inactive) | > 100 µM (inactive) | > 100 µM (inactive) | > 100 µM (inactive) | > 100 µM (inactive) | > 100 µM (inactive) | > 100 µM (inactive) | > 100 µM (inactive) | > 100 µM (inactive) |  | > 100 µM (inactive) | > 100 µM (inactive) |
| Cc1cc(C(=O)CCCCOc2ccc(C3=NCCO3)cc2)c(C)n1C | 37.2 µM (inactive) |  | 34.4 µM (inactive) | 37.3 µM (inactive) |  | 52.7 µM (inactive) | 15.7 µM (inactive) | 24.7 µM (inactive) | 26.7 µM (inactive) | 25.1 µM (inactive) | 36.5 µM (inactive) | 29.3 µM (inactive) | 71.6 µM (inactive) | 38.8 µM (inactive) | 98.2 µM (inactive) | 28.7 µM (inactive) | 31.3 µM (inactive) | 21 µM (inactive) | 39.2 µM (inactive) | 24.3 µM (inactive) |
| O=c1[nH][nH]c(=O)n1/N=C/c1ccccc1 | > 100 µM (inactive) |  | > 100 µM (inactive) | > 100 µM (inactive) | > 100 µM (inactive) | > 100 µM (inactive) | > 100 µM (inactive) | > 100 µM (inactive) | > 100 µM (inactive) | > 100 µM (inactive) |  | > 100 µM (inactive) | > 100 µM (inactive) | > 100 µM (inactive) | > 100 µM (inactive) | > 100 µM (inactive) | > 100 µM (inactive) | > 100 µM (inactive) | > 100 µM (inactive) | > 100 µM (inactive) |
